≈ marks a conversion by molar mass, not a printed value. Like-named read-outs stand apart in the source and are kept apart here.
Key:
[1] = system: E. coli strain 25922; assay: MIC by broth microdilution, E. coli strain 25922; format: cell-based
Method: (§1) Bacterial isolates were cultivated from −70° C. frozen stocks by two consecutive overnight passages at 35° C. in ambient air on 5% blood agar (Remel, Lenexa, Kans.). Quality control and P. aeruginosa ATCC 27853) is from the American Type Culture Collection (ATCC; Rockville, Md.) and PAO1 was received from Dr. K. Poole.
Minimal Inhibitory Concentrations (MICs) were determined by the broth microdilution method in accordance with Clinical and Laboratories Institute (CLSI) guidelines. In brief, fresh overnight bacterial cultures were suspended in sterile saline, and adjusted to a 0.5 McFarland turbidity standard. Bacterial suspensions were then diluted in cation adjusted Mueller-Hinton Broth (MHB II; BBL) to yield a final inoculum of approximately 5×10^5 colony-forming units (CFU)/mL. A master plate of antibiotics was prepared at a concentration equivalent to hundred-fold the highest desired final concentration in 100% dimethyl sulfoxide (DMSO). The master antibiotic plate was then diluted by serial twofold dilution with a multichannel pipette. The resulting dilution series of compounds were diluted 1:10 with sterile water leading to a 10% DMSO final concentration. A volume of 10 μL of the drug dilution series was transferred to 96-well assay plates. Assay plates were inoculated with 90 μL of bacterial suspensions and incubated at 35-37° C. for 20 hrs. The assay plates were read using a microtiter plate reader (Molecular Devices) at 600 nm as well as by visual observation with a reading mirror. The lowest concentration of the compound that prevented visible growth was recorded as the MIC. Performance of the assay was monitored by testing aztreonam against laboratory quality control strains in accordance with guidelines of the CLSI.

[2] = system: E. coli containing KPC-2; assay: MIC by broth microdilution, E. coli containing KPC-2 (Ec KPC2 Iso); format: cell-based; settings: Escherichia coli, read-out: Ec KPC2 Iso (MIC), E. coli containing KPC-2 (carbapenemase from Klebsiella pneumoniae)
Method: as §1
Strain NB27273 (BW25113 pspB::Km^r) was obtained from the Keio transposon insertion collection. The strain has the pspB gene replaced by a kanamycin resistance marker (BW25113 pspB::Km^r). This strain was cured of the transposon in pspB via FLP recombinase using published methodology. The resulting strain, BW25113 pspB, was used as a host for multicopy vectors expressing key β-lactamases. Multicopy plasmids directing constitutive expression of β-lactamases were established as follows: Synthetic, codon optimized genes encoding E. coli KPC2 and SHV12 β-lactamases were made by DNA2.0 (Palo Alto, Calif.). Each of the synthetic fragments were designed to contain NotI and NcoI restriction sites at their termini, allowing ligation into a NotI/NcoI digested pET28a(+) derivative for protein expression. […] The codon optimized nucleotide sequences and relevant primer recognition information is shown below:
The PCR products were then digested with XhoI and EcoRI and ligated into similarly digested plasmid pAH63-pstS(BlaP). Plasmid pAH63-pstS(BlaP) is a derivative of plasmid pAH63 (J Bacteriol: 183(21): 6384-6393) made by cloning the TEM-1 (bla) promoter and signal peptide encoding region from plasmid pBAD (J Bacteriol. 1995 July 177(14):4121-30) into plasmid pAH63. This fragment was PCR amplified from pBAD using primer pair E192 (ttca[…]) (SEQ ID NO:13) and E194 ([…]) (SEQ ID NO:14), digested with PstI and BamHI and inserted into similarly digested plasmid pAH63. Therefore, expression of β-lactamases from pAH63-pstS(BlaP) based constructs is constitutive and the signal sequence is provided to direct these proteins to the periplasm. Plasmid pAH63 based vectors are used for insertion into the genome in single copy, however, to provide higher expression levels to allow more sensitive detection of the susceptibility of compounds to the β-lactamases, the expression inserts contained in these vectors were moved to the replicative multicopy vector pBAD-Kan (J Bacteriol. 1995 July 177(14):4121-30). To accomplish this, the inserts encompassing the β-lactamase genes, with the associated TEM promoter and signal sequences, were PCR amplified from their corresponding vectors using primer E269 (ccg[…]) (SEQ ID NO:15) and E202 (aatc[…]) (SEQ ID NO:16) for the KPC2 construct and E204 (aatc[…]) (SEQ ID NO:17) for the SHV12 construct. These fragments were then digested with XbaI and EcoRI, and each was inserted into pBAD18-kan that had been digested with the same enzymes to generate a pair of multicopy vectors expressing KPC2 and SHV12 respectively. These vectors were transformed into BW25113 pspB to generate strains NB27273-CDY0033 (expressing KPC2) and NB27273-CDY0030 (expressing SHV12). The pBAD18-kan vector also contains the TEM promoter region and signal sequence, (but lacks any intact β-lactamase genes) and was transformed into BW25113 pspB using standard protocols to generate the control strain NB27273-CDY0026. Expression of the β-lactamases was confirmed by verifying decreased susceptibility to example test antibiotics that are known substrates of KPC2 or SHV12. Susceptibility Testing
Minimal Inhibitory Concentrations (MICs) were determined by the broth microdilution method in accordance with Clinical and Laboratories Institute (CLSI) guidelines. In brief, fresh overnight bacterial cultures were suspended in sterile saline, and adjusted to a 0.5 McFarland turbidity standard. Bacterial suspensions were then diluted in cation adjusted Mueller-Hinton Broth (MHB II; BBL) to yield a final inoculum of approximately 5×10^5 colony-forming units (CFU)/mL. […]

[3] = Escherichia coli, 25922, E. coli strain 25922, read-out: Ec 25922 (MIC)

Compound	MIC [1, 3] [µg/mL]	MIC [2] [µg/mL]	MIC ([1]; Escherichia coli, 25922, read-out: Ec 25922 (MIC)) [µg/mL]
N=C(NCc1cnn(C[C@@H]2[C@H](NC(=O)/C(=N\OC3(C(=O)O)CC3)c3csc(N)n3)C(=O)N2S(=O)(=O)O)n1)N[C@@H]1CCNC1 (stereo in doubt) [Example 142, 1-(((Z)-(1-(2-aminothiazol-4-yl)-2-oxo-2-(((3S,4R)-2-oxo-4-((4-((3-(®-pyrrolidin-3-yl)guanidino)methyl)-2H-1,2,3-triazol-2-yl)methyl)-1-sulfoazetidin-3-yl)amino)ethylidene)amino)oxy)cyclopropanecarboxylic acid]	0.5 (≈ 0.78 µM)	0.25 (≈ 0.39 µM)	–
CC(C)(O/N=C(\C(=O)N[C@@H]1C(=O)N(S(=O)(=O)O)[C@@H]1CN1CCOC1=O)c1csc(N)n1)C(=O)O [Example 2, 2-(((Z)-(1-(2-aminothiazol-4-yl)-2-oxo-2-(((3S,4R)-2-oxo-4-((2-oxooxazolidin-3-yl)methyl)-1-sulfoazetidin-3-yl)amino)ethylidene)amino)oxy)-2-methylpropanoic acid]	1 (≈ 1.92 µM)	0.5 (≈ 0.961 µM)	–
CC(C)(O/N=C(\C(=O)N[C@@H]1C(=O)N(S(=O)(=O)O)[C@@H]1CN1CCNC1=O)c1csc(N)n1)C(=O)O [Example 3, 2-(((Z)-(1-(2-aminothiazol-4-yl)-2-oxo-2-(((3S,4R)-2-oxo-4-((2-oxoimidazolidin-1-yl)methyl)-1-sulfoazetidin-3-yl)amino)ethylidene)amino)oxy)-2-methylpropanoic acid]	2 (≈ 3.85 µM)	1 (≈ 1.92 µM)	–
CC(C)(O/N=C(\C(=O)N[C@@H]1C(=O)N(S(=O)(=O)O)[C@@H]1Cn1nnc(CNC(=N)N)n1)c1csc(N)n1)C(=O)O [Example 5, 2-(((Z)-(1-(2-aminothiazol-4-yl)-2-(((2R,3S)-2-((5-(guanidinomethyl)-2H-tetrazol-2-yl)methyl)-4-oxo-1-sulfoazetidin-3-yl)amino)-2-oxoethylidene)amino)oxy)-2-methylpropanoic acid]	1 (≈ 1.74 µM)	4 (≈ 6.96 µM)	–
CC(C)(O/N=C(\C(=O)N[C@@H]1C(=O)N(S(=O)(=O)O)[C@@H]1Cn1nnnc1CN)c1csc(N)n1)C(=O)O [Example 6, 2-(((Z)-(2-(((2R,3S)-2-((5-(aminomethyl)-1H-tetrazol-1-yl)methyl)-4-oxo-1-sulfoazetidin-3-yl)amino)-1-(2-aminothiazol-4-yl)-2-oxoethylidene)amino)oxy)-2-methylpropanoic acid]	4 (≈ 7.51 µM)	1 (≈ 1.88 µM)	–
Cc1nnnn1C[C@@H]1[C@H](NC(=O)/C(=N\OC(C)(C)C(=O)O)c2csc(N)n2)C(=O)N1S(=O)(=O)O [Example 8, 2-(((Z)-(1-(2-aminothiazol-4-yl)-2-(((2R,3S)-2-((5-methyl-1H-tetrazol-1-yl)methyl)-4-oxo-1-sulfoazetidin-3-yl)amino)-2-oxoethylidene)amino)oxy)-2-methylpropanoic acid]	2 (≈ 3.86 µM)	2 (≈ 3.86 µM)	–
CC(C)(O/N=C(\C(=O)N[C@@H]1C(=O)N(S(=O)(=O)O)[C@@H]1Cn1cncn1)c1csc(N)n1)C(=O)O [Example 9, 2-(((Z)-(2-(((2R,3S)-2-((1H-1,2,4-triazol-1-yl)methyl)-4-oxo-1-sulfoazetidin-3-yl)amino)-1-(2-aminothiazol-4-yl)-2-oxoethylidene)amino)oxy)-2-methylpropanoic acid]	1 (≈ 1.99 µM)	1 (≈ 1.99 µM)	–
CC(C)(O/N=C(\C(=O)N[C@@H]1C(=O)N(S(=O)(=O)O)[C@@H]1Cn1cnc(CN)n1)c1csc(N)n1)C(=O)O [Example 10, 2-(((Z)-(2-(((2R,3S)-2-((3-(aminomethyl)-1H-1,2,4-triazol-1-yl)methyl)-4-oxo-1-sulfoazetidin-3-yl)amino)-1-(2-aminothiazol-4-yl)-2-oxoethylidene)amino)oxy)-2-methylpropanoic acid]	4 (≈ 7.53 µM)	11 (≈ 20.7 µM)	–
CC(C)(O/N=C(\C(=O)N[C@@H]1C(=O)N(S(=O)(=O)O)[C@@H]1Cn1cnc(CNC(=N)N)n1)c1csc(N)n1)C(=O)O [Example 11, 2-(((Z)-(1-(2-aminothiazol-4-yl)-2-(((2R,3S)-2-((3-(guanidinomethyl)-1H-1,2,4-triazol-1-yl)methyl)-4-oxo-1-sulfoazetidin-3-yl)amino)-2-oxoethylidene)amino)oxy)-2-methylpropanoic acid]	4 (≈ 6.97 µM)	4 (≈ 6.97 µM)	–
CC(C)(O/N=C(\C(=O)N[C@@H]1C(=O)N(S(=O)(=O)O)[C@@H]1Cn1ncnc1CN)c1csc(N)n1)C(=O)O [Example 12, 2-(((Z)-(2-(((2R,3S)-2-((5-(aminomethyl)-1H-1,2,4-triazol-1-yl)methyl)-4-oxo-1-sulfoazetidin-3-yl)amino)-1-(2-aminothiazol-4-yl)-2-oxoethylidene)amino)oxy)-2-methylpropanoic acid]	4 (≈ 7.53 µM)	4 (≈ 7.53 µM)	–
CC(C)(O/N=C(\C(=O)N[C@@H]1C(=O)N(S(=O)(=O)O)[C@@H]1Cn1ncnc1CNC(=N)N)c1csc(N)n1)C(=O)O [Example 13, 2-(((Z)-(1-(2-aminothiazol-4-yl)-2-(((2R,3S)-2-((5-(guanidinomethyl)-1H-1,2,4-triazol-1-yl)methyl)-4-oxo-1-sulfoazetidin-3-yl)amino)-2-oxoethylidene)amino)oxy)-2-methylpropanoic acid]	16 (≈ 27.9 µM)	32 (≈ 55.8 µM)	–
CC(C)(O/N=C(\C(=O)N[C@@H]1C(=O)N(S(=O)(=O)O)[C@@H]1CN1CCCCC1=O)c1csc(N)n1)C(=O)O [Example 14, 2-(((Z)-(1-(2-aminothiazol-4-yl)-2-oxo-2-(((3S,4R)-2-oxo-4-((2-oxopiperidin-1-yl)methyl)-1-sulfoazetidin-3-yl)amino)ethylidene)amino)oxy)-2-methylpropanoic acid]	16 (≈ 30 µM)	8 (≈ 15 µM)	–
Nc1nc(/C(=N/OC2(C(=O)O)CC2)C(=O)N[C@@H]2C(=O)N(S(=O)(=O)O)[C@@H]2Cn2ncc(CNC3CNC3)n2)cs1 [Example 103, 1-(((Z)-(1-(2-aminothiazol-4-yl)-2-(((2R,3S)-2-((4-((azetidin-3-ylamino)methyl)-2H-1,2,3-triazol-2-yl)methyl)-4-oxo-1-sulfoazetidin-3-yl)amino)-2-oxoethylidene)amino)oxy)cyclopropanecarboxylic acid]	0.25 (≈ 0.428 µM)	–	–
NCC1CN(C[C@@H]2[C@H](NC(=O)/C(=N\OC3(C(=O)O)CC3)c3csc(N)n3)C(=O)N2S(=O)(=O)O)C(=O)N1 (stereo partly drawn) [Example 122, 1-(((Z)-(2-(((2R,3S)-2-((4-(aminomethyl)-2-oxoimidazolidin-1-yl)methyl)-4-oxo-1-sulfoazetidin-3-yl)amino)-1-(2-aminothiazol-4-yl)-2-oxoethylidene)amino)oxy)cyclopropanecarboxylic acid]	≤ 0.06	–	0.125 (≈ 0.229 µM)

From patent US10369138B2, “Monobactam organic compounds for the treatment of bacterial infections” (Novartis AG, priority 2014, dated 2019)
